Measurements: patent US11230526B1, “Cylcoalkenyl derivatives useful as agonists of the GPR120 and/or GPR40 receptors” (Janssen Pharmaceutica NV, priority 2018, dated 2022)
pEC50: −log10 of the molar value.

What was measured:
Human GPR120 short form = target: T1, Human GPR120 short form (Homo sapiens, UniProt Q5NUL3); experiment: Human GPR120 calcium flux assay, Procedure Calcium B (4200 cells/well); type: cell-based
T1 construct: expressed in transfected cells
T1 sequence (Q5NUL3 1-361): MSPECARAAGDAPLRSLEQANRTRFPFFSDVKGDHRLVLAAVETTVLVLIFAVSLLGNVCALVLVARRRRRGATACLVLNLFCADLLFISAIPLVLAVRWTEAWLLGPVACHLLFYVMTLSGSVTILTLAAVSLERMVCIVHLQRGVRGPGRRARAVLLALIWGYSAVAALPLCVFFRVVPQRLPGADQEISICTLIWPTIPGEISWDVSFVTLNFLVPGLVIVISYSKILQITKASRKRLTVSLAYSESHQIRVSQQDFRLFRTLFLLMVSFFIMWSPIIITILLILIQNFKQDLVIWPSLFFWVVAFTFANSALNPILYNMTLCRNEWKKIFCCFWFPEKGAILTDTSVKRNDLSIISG
Outline: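 Agonist EC50 came from a four-parameter fit of RFU (Fmax−Fmin) read over 300 s on FLIPR. Cells were HEK293 stably transfected with human GPR120 (NM_001195755.1) at 4200 per well, serum-starved 1 h and loaded with Fluo-4 NW dye with probenecid before ligand addition.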

human GPR40 = target: T2, human GPR40 (Homo sapiens, UniProt O14842); experiment: GPR40 calcium flux assay, human GPR40; type: cell-based; conditions: HEK293 cells stably expressing GPR40; table does not say human or rat
T2 construct: expressed in transfected cells
Outline: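 Cells preincubated 1 h at 37° C. in HBSS, 20 mM HEPES, 0.1% BSA, then Fluo 8 calcium dye 30 min at 37° C. and 15 min at room temperature.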

T2 sequence (O14842 whole entry): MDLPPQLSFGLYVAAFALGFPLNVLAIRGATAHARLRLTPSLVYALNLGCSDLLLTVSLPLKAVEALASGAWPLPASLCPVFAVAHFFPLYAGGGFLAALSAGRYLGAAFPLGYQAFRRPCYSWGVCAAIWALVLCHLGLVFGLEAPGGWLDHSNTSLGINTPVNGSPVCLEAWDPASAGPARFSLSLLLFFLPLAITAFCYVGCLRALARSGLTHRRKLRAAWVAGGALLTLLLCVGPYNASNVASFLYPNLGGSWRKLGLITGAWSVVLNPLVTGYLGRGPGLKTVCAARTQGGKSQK

Row | pEC50 (Human GPR120 short form) | pEC50 (human GPR40) | SMILES
1 | 6.37 | 6.00 | Cc1cc(OCC2=C(c3ccc(Cl)cc3)CCC2C)c(F)cc1CCC(=O)O (stereo not drawn) [Compound 333, 3-[4-[[2-(4-chlorophenyl)-5-methyl-cyclopenten-1-yl]methoxy]-5-fluoro-2-methyl-phenyl]Propanoic Acid]
2 | 5.76 | 5.67 | CC1CCC(c2ccccc2)=C1COc1ccc(CCC(=O)O)c(Cl)c1 (stereo not drawn) [Compound 334, 3-[2-chloro-4-[(5-methyl-2-phenyl-cyclopenten-1-yl)methoxy]phenyl]Propanoic Acid]
3 | 6.47 | 6.28 | CC1CCC(c2ccc(Cl)cc2)=C1COc1ccc(CCC(=O)O)c(Cl)c1 (stereo not drawn) [Compound 337, 3-[2-chloro-4-[[2-(4-chlorophenyl)-5-methyl-cyclopenten-1-yl]methoxy]phenyl]Propanoic Acid]
4 | 6.13 | 6.03 | Cc1ccc(F)c(C2=C(COc3cc(C)c(CCC(=O)O)cc3F)CCC2)c1 [Compound 340, 3-[5-fluoro-4-[[2-(2-fluoro-5-methyl-phenyl)cyclopenten-1-yl]methoxy]-2-methyl-phenyl]Propanoic Acid]
5 | 5.86 | 5.96 | Cc1ccc(F)c(C2=C(COc3ccc(CCC(=O)O)c(Cl)c3)CCC2)c1 [Compound 343, 3-[2-chloro-4-[[2-(2-fluoro-5-methyl-phenyl)cyclopenten-1-yl]methoxy]phenyl]Propanoic Acid]
6 | 6.28 | 6.86 | O=C(O)CCc1ccc(OCC2=C(c3cc(Cl)ccc3F)CCC2)cc1C(F)(F)F [Compound 344, 3-[4-[[2-(5-chloro-2-fluoro-phenyl)cyclopenten-1-yl]methoxy]-2-(trifluoromethyl)phenyl]Propanoic Acid]
7 | 5.52 | 7.17 | Cc1ccc(CC2=C(COc3ccc(CCC(=O)O)c(C(F)(F)F)c3)CCC2)cc1 [Compound 345, 3-[4-[[2-(p-tolylmethyl)cyclopenten-1-yl]methoxy]-2-(trifluoromethyl)phenyl]Propanoic Acid]
8 | 5.89 | 6.64 | Cc1ccc(CC2=C(COc3ccc(CCC(=O)O)cc3)CCC2)cc1 [Compound 346, 3-[4-[[2-(p-tolylmethyl)cyclopenten-1-yl]methoxy]phenyl]Propanoic Acid]
9 | 5.75 | 6.05 | Cc1ccc(CC2=C(COc3cc(C)c(CCC(=O)O)cc3F)CCC2)cc1 [Compound 347, 3-[5-fluoro-2-methyl-4-[[2-(p-tolylmethyl)cyclopenten-1-yl]methoxy]phenyl]Propanoic Acid]
10 | 5.72 | 7.22 | O=C(O)CCc1ccc(OCC2=C(Cc3ccc(F)cc3)CCC2)cc1Cl [Compound 349, 3-[2-chloro-4-[[2-[(4-fluorophenyl)methyl]cyclopenten-1-yl]methoxy]phenyl]Propanoic Acid]
11 | < 5.30 | 5.91 | O=C(O)CCc1ccc(OCC2=C(C3CC3)CCC2)cc1C(F)(F)F [Compound 351, 3-[4-[(2-cyclopropylcyclopenten-1-yl)methoxy]-2-(trifluoromethyl)phenyl]Propanoic Acid]
12 | < 5.30 | < 5.00 | Cc1cc(OCC2=C(C3=CCCCC3)CCC2)c(F)cc1CCC(=O)O [Compound 352, 3-[4-[[2-(cyclohexen-1-yl)cyclopenten-1-yl]methoxy]-5-fluoro-2-methyl-phenyl]Propanoic Acid]
13 | < 5.30 | 5.43 | O=C(O)CCc1ccc(OCC2=C(C3=CCCCC3)CCC2)cc1Cl [Compound 355, 3-[2-chloro-4-[[2-(cyclohexen-1-yl)cyclopenten-1-yl]methoxy]phenyl]Propanoic Acid]
14 | 6.18 | 6.19 | Cc1cc(OCC2=C(Cc3ccccc3)CC(F)(F)C2)c(F)cc1CCC(=O)O [Compound 357, 3-[4-[(2-benzyl-4,4-difluoro-cyclopenten-1-yl)methoxy]-5-fluoro-2-methyl-phenyl]Propanoic Acid]
15 | 5.51 | 7.09 | O=C(O)CCc1ccc(OCC2=C(Cc3ccc(Cl)cc3)CCC2)cc1C(F)(F)F [Compound 359, 3-[4-[[2-[(4-chlorophenyl)methyl]cyclopenten-1-yl]methoxy]-2-(trifluoromethyl)phenyl]Propanoic Acid]
16 | < 5.30 | 6.01 | Cc1cc(OCC2=C(Cc3ccc(Cl)cc3)CCC2)c(F)cc1CCC(=O)O [Compound 360, 3-[4-[[2-[(4-chlorophenyl)methyl]cyclopenten-1-yl]methoxy]-5-fluoro-2-methyl-phenyl]Propanoic Acid]
17 | < 5.30 | 5.77 | Cc1cc(OCC2=C(Cc3cccc(F)c3)CCC2)c(F)cc1CCC(=O)O [Compound 363, 3-[5-fluoro-4-[[2-[(3-fluorophenyl)methyl]cyclopenten-1-yl]methoxy]-2-methyl-phenyl]Propanoic Acid]
18 | 6.30 | 6.00 | CCCCC1=C(COc2ccc(CCC(=O)O)cc2)CCC1 [Compound 365]
19 | 5.94 | < 5.00 | CC1CCC(c2ccccc2)=C1COc1ccc(CCC(=O)O)cc1 (stereo not drawn) [Compound 366, 3-[4-[(5-methyl-2-phenyl-cyclopenten-1-yl)methoxy]phenyl]Propanoic Acid]

Second part, the compound before the results:

Row | SMILES | pEC50 (Human GPR120 short form) | pEC50 (human GPR40)
20 | CC1CCC(c2ccc(Cl)cc2)=C1COc1ccc(CCC(=O)O)c(C(F)(F)F)c1 (stereo not drawn) [Compound 336, 3-[4-[[2-(4-chlorophenyl)-5-methyl-cyclopenten-1-yl]methoxy]-2-(trifluoromethyl)phenyl]Propanoic Acid] | 6.25 | 6.37
21 | Cc1cc(OCC2=C(c3ccccc3)CCC2C)c(F)cc1CCC(=O)O (stereo not drawn) [Compound 338, 3-[5-fluoro-2-methyl-4-[(5-methyl-2-phenyl-cyclopenten-1-yl)methoxy]phenyl]Propanoic Acid] | 6.14 | 5.54
22 | Cc1cc(OCC2=C(c3cc(Cl)ccc3F)CCC2)c(F)cc1CCC(=O)O [Compound 339, 3-[4-[[2-(5-chloro-2-fluoro-phenyl)cyclopenten-1-yl]methoxy]-5-fluoro-2-methyl-phenyl]Propanoic Acid] | 6.10 | 6.45
23 | Cc1ccc(F)c(C2=C(COc3ccc(CCC(=O)O)c(C(F)(F)F)c3)CCC2)c1 [Compound 341, 3-[4-[[2-(2-fluoro-5-methyl-phenyl)cyclopenten-1-yl]methoxy]-2-(trifluoromethyl)phenyl]Propanoic Acid] | 6.35 | 6.55
24 | O=C(O)CCc1ccc(OCC2=C(c3cc(Cl)ccc3F)CCC2)cc1Cl [Compound 342, 3-[2-chloro-4-[[2-(5-chloro-2-fluoro-phenyl)cyclopenten-1-yl]methoxy]phenyl]Propanoic Acid] | 6.29 | 6.49
25 | Cc1ccc(CC2=C(COc3ccc(CCC(=O)O)c(Cl)c3)CCC2)cc1 [Compound 348, 3-[2-chloro-4-[[2-(p-tolylmethyl)cyclopenten-1-yl]methoxy]phenyl]Propanoic Acid] | 5.63 | 7.24
26 | Cc1cc(OCC2=C(Cc3ccc(F)cc3)CCC2)c(F)cc1CCC(=O)O [Compound 350, 3-[5-fluoro-4-[[2-[(4-fluorophenyl)methyl]cyclopenten-1-yl]methoxy]-2-methyl-phenyl]Propanoic Acid] | 5.75 | 6.17
27 | O=C(O)CCc1ccc(OCC2=C(Cc3ccc(F)cc3)CCC2)cc1C(F)(F)F [Compound 353, 3-[4-[[2-[(4-fluorophenyl)methyl]cyclopenten-1-yl]methoxy]-2-(trifluoromethyl)phenyl]Propanoic Acid] | 5.88 | 7.34
28 | O=C(O)CCc1ccc(OCC2=C(C3=CCCCC3)CCC2)cc1C(F)(F)F [Compound 354, 3-[4-[[2-(cyclohexen-1-yl)cyclopenten-1-yl]methoxy]-2-(trifluoromethyl)phenyl]Propanoic Acid] | 5.75 | 6.08
29 | O=C(O)CCc1ccc(OCC2=C(Cc3ccc(Cl)cc3)CCC2)cc1Cl [Compound 356, 3-[2-chloro-4-[[2-[(4-chlorophenyl)methyl]cyclopenten-1-yl]methoxy]phenyl]Propanoic Acid] | 5.60 | 7.17
30 | O=C(O)CCc1ccc(OCC2=C(Cc3ccccc3)CC(F)(F)C2)cc1C(F)(F)F [Compound 358, 3-[4-[(2-benzyl-4,4-difluoro-cyclopenten-1-yl)methoxy]-2-(trifluoromethyl)phenyl]Propanoic Acid] | 6.02 | 7.19
31 | O=C(O)CCc1ccc(OCC2=C(Cc3cccc(F)c3)CCC2)cc1C(F)(F)F [Compound 361, 3-[4-[[2-[(3-fluorophenyl)methyl]cyclopenten-1-yl]methoxy]-2-(trifluoromethyl)phenyl]Propanoic Acid] | 5.48 | 6.88
32 | O=C(O)CCc1ccc(OCC2=C(Cc3cccc(F)c3)CCC2)cc1Cl [Compound 362, 3-[2-chloro-4-[[2-[(3-fluorophenyl)methyl]cyclopenten-1-yl]methoxy]phenyl]Propanoic Acid] | < 5.30 | 6.80
33 | O=C(O)CCc1ccc(OCC2=C(Cc3ccccc3)CC(F)(F)C2)cc1Cl [Compound 364, 3-[4-[(2-benzyl-4,4-difluoro-cyclopenten-1-yl)methoxy]-2-chloro-phenyl]Propanoic Acid] | 6.05 | 7.31
